Where a name gives a salt, the structure may show the parent alone.
Key:
Assay in all cases: Cytotoxicity in vitro in the presence and absence of elastase (MTT assay)
SUM149 = type: cell-based; conditions: SUM149 cells, 72 h
Description: (§1) Cultivation of cells was performed according to standard procedures with the media recommended by the provider. The cells, in a total volume of 100 μL, were seeded in a 96-well plate with a white bottom (#3610). After a 24 h incubation period at 37° C. and 5% CO2, the medium was exchanged by adding 90 μL fresh medium. The treatment started by adding the test compound in 10 μL of culture medium to the cells in triplicates. Concentrations ranging from 10^−5 M to 10^−13 M were chosen. Two identically treated sets of samples were prepared. One set was treated with the test compound alone, whereas to the second set the compound and 10 nM elastase was added followed by a 72 h incubation period at 37° C. and 5% CO2. The proliferation was detected using the MTT assay (ATCC). At the end of the incubation period the MTT reagent was added to all samples for 4h. Lysis of the cells followed by addition of the detergent was done overnight. The formed dye was detected at 570 nm. The proliferation of untreated but otherwise identically handled cells was define as the […].

786-O = type: cell-based, human; conditions: 786-O cells, 72 h
Description: as §1

NCI H292 = type: cell-based, human; conditions: NCI H292 cells, 72 h
Description: as §1

HT29 = type: cell-based, human; conditions: HT29 cells, 72 h
Description: as §1

Structure (SMILES) | IC50 (SUM149; compound alone (no elastase)) | IC50 (SUM149; with 10 nM elastase) | IC50 (786-O; compound alone (no elastase)) | IC50 (786-O; with 10 nM elastase) | IC50 (NCI H292; compound alone (no elastase)) | IC50 (NCI H292; with 10 nM elastase) | IC50 (HT29; compound alone (no elastase)) | IC50 (HT29; with 10 nM elastase)
CCCNC(=O)Nc1cccc(S(=O)(=O)Nc2cccc([C@@H](CC(=O)O)NC(=O)Nc3ccc(NC(=O)NCCCC[C@H](NC(=O)Nc4ccc(NC(=O)N[C@H](CC(=O)O)c5cccc(NS(=O)(=O)c6cccc(NC(=O)NCCC)c6)c5)cc4)C(=O)NCCOCCOCCOCCC(=O)N[C@@H](CC(=O)O)C(=O)N4CCC[C@H]4C(=O)N[C@H](C(=O)O[C@]4(CC)C(=O)OCc5c4cc4n(c5=O)Cc5c-4nc4ccccc4c5CC)C(C)C)cc3)c2)c1 [Compound A1, Trisodium (4S)-4,11-diethyl-3,14-dioxo-3,4,12,14-tetrahydro-1H-pyrano[3′,4′:6,7]indolizino [1,2-b]quinoline-4-yl 1-[(2S)-15-{[N^2,N^6-bis({4-[({(1R)-2-carboxylato-1-[3-({3-[(propylcarbamoyl)amino]benzene-1-sulfonyl}amino)phenyl]ethyl}carbamoyl)amino]phenyl}carbamoyl)-L-lysyl]amino}-2-(carboxylatomethyl)-4-oxo-7,10,13-trioxa-3-azapentadecanan-1-oyl]-L-prolyl-L-valinate] | 10 to 100 nM | 0.01 to 0.1 nM | 10 to 100 nM | 0.1 to 1 nM | 10 to 100 nM | 0.1 to 1 nM | > 100 nM | 0.01 to 0.1 nM
CCCNC(=O)Cc1cccc(S(=O)(=O)Nc2cccc([C@@H](CC(=O)O)NC(=O)Nc3ccc(NC(=O)NCCOCCOCCOCCC(=O)N[C@@H](CCCCNC(=O)CCOCCOCCOCCNC(=O)Nc4ccc(NC(=O)N[C@H](CC(=O)O)c5cccc(CS(=O)(=O)c6cccc(NC(=O)NCCC)c6)c5)cc4)C(=O)NCCN(C)CCN(C)CCN(C)CC(=O)N[C@@H](CC(N)=O)C(=O)N4CCC[C@H]4C(=O)N[C@H](C(=O)O[C@]4(CC)C(=O)OCc5c4cc4n(c5=O)Cc5c-4nc4ccccc4c5CC)C(C)C)cc3)c2)c1 [Compound A5] | 1.1 to 10 nM | < 0.01 nM | 10 to 100 nM | 0.01 to 0.1 nM | 1.1 to 10 nM | < 0.01 nM | 10 to 100 nM | 0.01 to 0.1 nM
CCCNC(=O)Cc1cccc(S(=O)(=O)Nc2cccc([C@H](CC(=O)O)NC(=O)Nc3ccc(NC(=O)NCCOCCOCCOCCC(=O)N[C@@H](CCCCNC(=O)CCOCCOCCOCCNC(=O)Nc4ccc(NC(=O)N[C@@H](CC(=O)O)c5cccc(NS(=O)(=O)c6cccc(NC(=O)NCCC)c6)c5)cc4)C(=O)NCCN(C)CCN(C)CCN(C)CC(=O)N[C@@H](CC(N)=O)C(=O)N4CCC[C@H]4C(=O)N[C@H](C(=O)O[C@]4(CC)C(=O)OCc5c4cc4n(c5=O)Cc5c-4nc4ccccc4c5CC)C(C)C)cc3)c2)c1 [Compound A6] | 1.1 to 10 nM | 0.01 to 0.1 nM | 10 to 100 nM | 0.1 to 1 nM | 1.1 to 10 nM | 0.1 to 1 nM | 10 to 100 nM | 0.1 to 1 nM
CCCNC(=O)Nc1cccc(S(=O)(=O)Nc2cccc([C@@H](CC(=O)O)NC(=O)Nc3ccc(NC(=O)NCCCCN(C)CCN(C)CCN(C)CC(=O)N[C@@H](CCCCNC(=O)CN(C)CCN(C)CCN(C)CCNC(=O)Nc4ccc(NC(=O)N[C@H](CC(=O)O)c5cccc(NS(=O)(=O)c6cccc(NC(=O)NCCC)c6)c5)cc4)C(=O)NCCN(C)CCN(C)CCN(C)CC(=O)N[C@@H](CC(N)=O)C(=O)N4CCC[C@H]4C(=O)N[C@H](C(=O)O[C@]4(CC)C(=O)OCc5c4cc4n(c5=O)Cc5c-4nc4ccccc4c5CC)C(C)C)cc3)c2)c1 [Compound A7] | 1.1 to 10 nM | 0.1 to 1 nM | 10 to 100 nM | 0.1 to 1 nM | 1.1 to 10 nM | 0.1 to 1 nM | 10 to 100 nM | 0.1 to 1 nM
CCCNC(=O)Nc1cccc(S(=O)(=O)Nc2cccc([C@H](CC(=O)O)NC(=O)Nc3ccc(NC(=O)NCCN(C)CCN(C)CCN(C)CC(=O)NCCCC[C@H](NC(=O)CN(C)CCN(C)CCN(C)CCNC(=O)Nc4ccc(NC(=O)N[C@@H](CC(=O)O)c5cccc(NS(=O)(=O)c6cccc(NC(=O)NCCC)c6)c5)cc4)C(=O)NCCN(C)CCN(C)CCN(C)CC(=O)N[C@@H](CC(N)=O)C(=O)N4CCC[C@H]4C(=O)N[C@H](C(=O)O[C@]4(CC)C(=O)OCc5c4cc4n(c5=O)Cc5c-4nc4ccccc4c5CC)C(C)C)cc3)c2)c1 [Compound A8] | 1.1 to 10 nM | 0.1 to 1 nM | 10 to 100 nM | 0.1 to 1 nM | 1.1 to 10 nM | 0.1 to 1 nM | 10 to 100 nM | 0.1 to 1 nM
CCCNC(=O)Nc1cccc(S(=O)(=O)Nc2cccc([C@@H](CC(=O)O)NC(=O)Nc3ccc(NC(=O)NCCN(C)CCN(C)CCN(C)CC(=O)NCC(=O)N4CCC[C@H]4C(=O)N[C@H](C(=O)O[C@]4(CC)C(=O)OCc5c4cc4n(c5=O)Cc5c-4nc4ccccc4c5CC)C(C)C)cc3)c2)c1 [Compound B2, (4S)-4,11-diethyl-3,14-dioxo-3,4,12,14-tetrahydro-1H-pyrano[3′,4′:6,7]indolizino[1,2-b]quinolin-4-yl N-{2-[{2-[{2-[({4-[({(1R)-2-carboxy-1-[3-({3-[(propylcarbamoyl)amino]benzene-1-sulfonyl}amino)phenyl]ethyl}carbamoyl)amino]phenyl}carbamoyl)amino]ethyl}(methyl)amino]ethyl}(methyl)amino]ethyl}-N-methylglycylglycyl-L-prolyl-L-valinate] | 0.1 to 1 nM | < 0.01 nM | 1.1 to 10 nM | < 0.01 nM | 1.1 to 10 nM | < 0.01 nM | 10 to 100 nM | < 0.01 nM
CCCNC(=O)Nc1cccc(S(=O)(=O)Nc2cccc([C@@H](CC(=O)O)NC(=O)Nc3ccc(NC(=O)NCCN(C)CCN(C)CCN(C)CC(=O)N[C@@H](CC(N)=O)C(=O)N4CCC[C@H]4C(=O)N[C@H](C(=O)O[C@]4(CC)C(=O)OCc5c4cc4n(c5=O)Cc5c-4nc4ccccc4c5CC)C(C)C)cc3)c2)c1 [Compound B4, (4S)-4,11-Diethyl-3,14-dioxo-3,4,12,14-tetrahydro-1H-pyrano[3′,4′:6,7]indolizino[1,2-b]quinolin-4-yl N-{2-[{2-[{2-[({4-[({(1R)-2-carboxy-1-[3-({3-[(propylcarbamoyl)amino]benzene-1-sulfonyl}amino)phenyl]ethyl}carbamoyl)amino]phenyl}carbamoyl)amino]ethyl} (methyl)amino]ethyl} I(methyl)amino]ethyl}-N-methylglycyl-L-asparaginyl-L-prolyl-L-valinate] | 1.1 to 10 nM | < 0.01 nM | 10 to 100 nM | 0.01 to 0.1 nM | 10 to 100 nM | 0.01 to 0.1 nM | 10 to 100 nM | 0.01 to 0.1 nM
CCCNC(=O)Nc1cccc(S(=O)(=O)Nc2cccc([C@@H](CC(=O)O)NC(=O)Nc3ccc(NC(=O)NCCOCCOCCOCCC(=O)N[C@@H](CC(=O)OCC[N+](C)(C)C)C(=O)N4CCC[C@H]4C(=O)N[C@H](C(=O)O[C@]4(CC)C(=O)OCc5c4cc4n(c5=O)Cc5c-4nc4ccccc4c5CC)C(C)C)cc3)c2)c1 [Compound C1, trifluoroacetate] | 10 to 100 nM | 0.01 to 0.1 nM | 10 to 100 nM | 0.01 to 0.1 nM | 10 to 100 nM | 0.01 to 0.1 nM | 10 to 100 nM | 0.01 to 0.1 nM
CCCNC(=O)Nc1cccc(S(=O)(=O)Nc2cccc([C@@H](CC(=O)O)N(C(=O)NC(N)=O)c3ccc(NCCCCOC(=O)C[C@H](NC(=O)CCOCCOCCOCCNc4ccc(N(C(=O)NC(N)=O)[C@H](CC(=O)O)c5cccc(NS(=O)(=O)c6cccc(NC(=O)NCCC)c6)c5)cc4)C(=O)N4CCC[C@H]4C(=O)N[C@H](C(=O)O[C@]4(CC)C(=O)OCc5c4cc4n(c5=O)Cc5c-4nc4ccccc4c5CC)C(C)C)cc3)c2)c1 [Compound C4] | 1.1 to 10 nM | 0.01 to 0.1 nM | 10 to 100 nM | 0.01 to 0.1 nM | 1.1 to 10 nM | 0.01 to 0.1 nM | > 100 nM | 0.01 to 0.1 nM

From US20240423973A1, “COMPOUNDS, PHARMACEUTICAL COMPOSITIONS, AND METHODS FOR THE TREATMENT, PREVENTION, OR MANAGEMENT OF HYPERPROLIFERATIVE DISORDERS” (VINCERX PHARMA GMBH, priority 2021, published 2024)
